The source of these data is ChEMBL document CHEMBL1201862, “PubChem BioAssay data set” (2004).

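Cultured in 96-well plates, cells were exposed to test compound for 48 hours across five concentrations. GI50: concentration for 50% inhibition of growth.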 Active and inactive are the calls of the source. Rule as the data show it: active = GI50 up to about 1.1 µM and inactive = higher.

Some test systems named below: SK-MEL-2; SF-268; HCT-15; K562; DMS-114; NCI-H226; M19-MEL; DLD-1; CCRF-CEM; SNB-78; HOP-92; ACHN; KM12.
Holding throughout (assay): NCI-60 cell line screen, 48 h

On to `COc1cccc(NC(=O)CC(=O)N2N=C(N(CCC#N)c3ccc(Cl)cc3)CC2c2ccccc2)c1` (stereo not given), for which the GI50 with SK-MEL-2 is > 100 µM (inactive); in the assay with SF-268, > 100 µM (inactive); in the assay with HCT-15 it was above 100 µM; in the assay with K562 it was > 100 µM (inactive); in the assay with DMS-114, > 100 µM (inactive); with NCI-H226, > 100 µM (inactive). For the same compound, the GI50 in the assay on M19-MEL, with DLD-1, in the assay on CCRF-CEM, in the assay on SNB-78, in the assay with HOP-92 and with ACHN was > 100 µM (inactive) in each case. The GI50 in the assay on KM12 is > 100 µM (inactive).
Regarding `Cc1cc2c(=O)cc(-c3ccc(C(=O)O)cc3)oc2c(C(N)=O)c1C`, the GI50 in the assay on SK-MEL-2 is > 100 µM (inactive); in the assay with SF-268 it was > 100 µM (inactive); in the assay on HCT-15, above 100 µM; in the assay with K562, > 100 µM (inactive); in the assay on DMS-114, > 100 µM (inactive); with M19-MEL, > 100 µM (inactive). The GI50 with DLD-1, with CCRF-CEM, in the assay on SNB-78, with HOP-92, in the assay on ACHN and in the assay on KM12 was > 100 µM (inactive) each time.
Consider `COc1ccc2c3ccc4c(c3n(C)c2c1)C(=O)c1ccccc1C4=O`, for which the GI50 in the assay with SF-268 is 56.6 µM (inactive); in the assay with HCT-15, above 100 µM; with K562, > 100 µM (inactive); with DMS-114, > 100 µM (inactive); with NCI-H226 it was > 100 µM (inactive); with M19-MEL, > 100 µM (inactive). Also, the GI50 in the assay with DLD-1 was > 100 µM (inactive); in the assay on CCRF-CEM, > 100 µM (inactive); in the assay on SNB-78, > 100 µM (inactive); in the assay with HOP-92, 80 µM (inactive); in the assay with ACHN, 51.3 µM (inactive).
On to `O=S1(=O)OCCOS(=O)(=O)C1I`, for which the GI50 in the assay with SK-MEL-2 is > 100 µM (inactive); in the assay with SF-268, 92.5 µM (inactive); with K562, > 100 µM (inactive); in the assay on DMS-114, > 100 µM (inactive); in the assay with NCI-H226, 28.6 µM (inactive); with M19-MEL, > 100 µM (inactive). For the same compound, the GI50 is > 100 µM (inactive) with DLD-1; 86.9 µM (inactive) in the assay on CCRF-CEM; > 100 µM (inactive) in the assay with SNB-78; > 100 µM (inactive) in the assay on HOP-92; > 100 µM (inactive) in the assay with KM12.
`Cc1cc(O)c2c(c1)C(O)(c1ccc3c(c1O)C(=O)c1c(O)cc(C)cc1C3(O)C1OC(CO)C(O)C(O)C1O)c1cccc(O)c1C2=O` (stereo not given): the GI50 in the assay on SF-268 was 20.1 µM (inactive); in the assay on HCT-15, 12.8 µM; in the assay with K562, 5.15 µM (inactive); in the assay with DMS-114, 9.91 µM (inactive); with M19-MEL, 12.2 µM (inactive); with DLD-1, 11.5 µM (inactive). Further, the GI50 in the assay with CCRF-CEM was 8.34 µM (inactive); in the assay with SNB-78, 16.1 µM (inactive); in the assay on HOP-92 it was 6.19 µM (inactive); with ACHN it was 13 µM (inactive); in the assay on KM12 it was 11.5 µM (inactive).
As for `N#CC1(C#N)C(c2ccccc2)C=CC12OCCCO2` (stereo not given), the GI50 with SK-MEL-2 is 72.4 µM (inactive); with SF-268, 28.4 µM (inactive); in the assay on K562, 30.6 µM (inactive); in the assay with DMS-114, 24.3 µM (inactive); in the assay on NCI-H226 it was 78.7 µM (inactive); in the assay on M19-MEL it was 40.3 µM (inactive). For the same compound, the GI50 in the assay with DLD-1 was 26 µM (inactive); in the assay on CCRF-CEM, 26.9 µM (inactive); in the assay on SNB-78, 31.6 µM (inactive); in the assay on HOP-92 it was 30.5 µM (inactive); in the assay with ACHN it was 42.7 µM (inactive); in the assay with KM12, 38.1 µM (inactive).
With `N#CC(/C(=N\NC(N)=S)C(=O)NC1C2CC3CC(C2)CC1C3)c1ccc(Cl)cc1` (stereo not given), the GI50 with SK-MEL-2 was > 100 µM (inactive); in the assay with SF-268, > 100 µM (inactive); with HCT-15, above 100 µM; in the assay with K562 it was > 100 µM (inactive); in the assay with DMS-114, > 100 µM (inactive); with NCI-H226, > 100 µM (inactive). Also, the GI50 in the assay with M19-MEL, in the assay with DLD-1, in the assay with CCRF-CEM, with SNB-78, with HOP-92 and in the assay with ACHN was > 100 µM (inactive) throughout. Moreover, the GI50 with KM12 was > 100 µM (inactive).
Consider `O=C1NC(Cc2ccccc2)C(=O)N2CCCC12` (stereo not given), for which the GI50 is > 100 µM (inactive) in the assay with SK-MEL-2; > 100 µM (inactive) in the assay with SF-268; above 100 µM with HCT-15; > 100 µM (inactive) in the assay with K562; > 100 µM (inactive) with DMS-114; > 100 µM (inactive) with NCI-H226. Moreover, the GI50 with M19-MEL, in the assay on DLD-1, in the assay with CCRF-CEM, with SNB-78, in the assay with HOP-92 and with ACHN was > 100 µM (inactive) in each case. The GI50 in the assay on KM12 was > 100 µM (inactive).
As to `CCCNCc1nc2ccc(Br)cc2c(=O)n1CCC`, the GI50 with SK-MEL-2 was 12.4 µM (inactive); with SF-268 it was 13.6 µM (inactive); in the assay on HCT-15, 14.2 µM; with K562, 8.04 µM (inactive); in the assay with DMS-114, 10.8 µM (inactive); in the assay with NCI-H226, 12.5 µM (inactive). For the same compound, the GI50 in the assay with M19-MEL is 13.2 µM (inactive); with DLD-1, 8.09 µM (inactive); in the assay with CCRF-CEM it was 3.27 µM (inactive); with SNB-78, 17.5 µM (inactive); in the assay with ACHN, 16.1 µM (inactive); in the assay on KM12 it was 15.1 µM (inactive).
Take `COc1cc(/C=C(\C#N)C(=O)c2ccccc2)cc(OC)c1OC`: the GI50 with SK-MEL-2 is > 100 µM (inactive); with SF-268 it was > 100 µM (inactive); with HCT-15, above 100 µM; with K562, > 100 µM (inactive); in the assay with DMS-114, > 100 µM (inactive); in the assay on NCI-H226, > 100 µM (inactive). The GI50 is > 100 µM (inactive) with M19-MEL; > 100 µM (inactive) in the assay with DLD-1; > 100 µM (inactive) in the assay on CCRF-CEM; > 100 µM (inactive) with SNB-78; 83.4 µM (inactive) with HOP-92; > 100 µM (inactive) in the assay with ACHN. Moreover, the GI50 with KM12 is > 100 µM (inactive).
As for `CCC(=O)N1C(=O)OCC1C(C)C` (stereo not given), the GI50 was > 100 µM (inactive) with SK-MEL-2; > 100 µM (inactive) in the assay on SF-268; above 100 µM with HCT-15; > 100 µM (inactive) in the assay on K562; > 100 µM (inactive) in the assay with DMS-114; > 100 µM (inactive) with M19-MEL. The GI50 in the assay on DLD-1, in the assay on CCRF-CEM, with SNB-78, with HOP-92, with ACHN and in the assay on KM12 was > 100 µM (inactive) in each case.
Consider `CCCCCCCCCCCCCC(=O)CSCCNC(=O)CCNC(=O)[C@@H](O)C(C)(C)COP(=O)(O)OP(=O)(O)OCC1OC(n2cnc3c(N)ncnc32)C(O)C1OP(=O)(O)O` (stereo not given in full), for which the GI50 with SK-MEL-2 was 17.2 µM (inactive); in the assay on SF-268 it was 20 µM (inactive); in the assay with HCT-15, 17.1 µM; in the assay with DMS-114, 15.6 µM (inactive); in the assay on NCI-H226, 18.2 µM (inactive); in the assay with M19-MEL, 18.9 µM (inactive). Moreover, the GI50 in the assay with DLD-1 is 19 µM (inactive); in the assay on CCRF-CEM, 24.4 µM (inactive); in the assay on SNB-78, 15.5 µM (inactive); in the assay with HOP-92, 11.5 µM (inactive); in the assay with ACHN it was 18.2 µM (inactive); in the assay with KM12 it was 14.6 µM (inactive).
In the case of `CN1OC2OC(=O)OC2[C@H]1[C@H]1O[C@H](c2ccccc2)OC1(C)c1cc(OC(=O)c2ccccc2)ccc1OC(=O)c1ccccc1` (stereo not given in full), the GI50 in the assay with SK-MEL-2 is > 50 µM (inactive); in the assay with SF-268, > 50 µM (inactive); in the assay with HCT-15 it was above 50 µM; in the assay on K562, > 50 µM (inactive); with DMS-114, > 50 µM (inactive); in the assay with NCI-H226, > 50 µM (inactive). Further, the GI50 in the assay with M19-MEL, in the assay with DLD-1, in the assay on CCRF-CEM, in the assay on SNB-78, in the assay on HOP-92 and in the assay on ACHN was > 50 µM (inactive) throughout. The GI50 with KM12 is > 50 µM (inactive).
Turning to `COC1=CC(C)C2C[C@H]3O[C@H](O)C[C@H]4C(C)C(=O)C(O)C([C@@]2(C)C1=O)[C@@]34C` (stereo not given in full), the GI50 was above 100 µM in the assay with HCT-15; > 100 µM (inactive) in the assay with K562; > 100 µM (inactive) in the assay on DMS-114; > 100 µM (inactive) in the assay on NCI-H226; > 100 µM (inactive) in the assay with M19-MEL; > 100 µM (inactive) in the assay on DLD-1. For the same compound, the GI50 in the assay with CCRF-CEM, in the assay on SNB-78, in the assay with HOP-92, in the assay on ACHN and in the assay on KM12 was > 100 µM (inactive) in each case.
Turning to `COC(=O)C1CC(OC(C)=O)C=C2C(=O)CCC21` (stereo not given), the GI50 is 29 µM (inactive) in the assay with SK-MEL-2; 16.6 µM (inactive) in the assay with SF-268; 15.3 µM in the assay on HCT-15; 15.9 µM (inactive) in the assay with K562; 15 µM (inactive) with DMS-114; 73.1 µM (inactive) with NCI-H226. In addition, the GI50 with M19-MEL was 22.4 µM (inactive); in the assay on DLD-1 it was 14.5 µM (inactive); with CCRF-CEM, 16.8 µM (inactive); with SNB-78 it was 24.1 µM (inactive); in the assay with ACHN, 20.2 µM (inactive); in the assay on KM12 it was 16.9 µM (inactive).
For the compound `CC(C)c1ccc(C(c2ccc(OCC(=O)O)cc2)c2ccc(C(C)C)cc(=O)c2O)c(O)c(=O)c1`, the GI50 was 3.56 µM with HCT-15; 3.41 µM (inactive) with K562; 2.92 µM (inactive) in the assay on DMS-114; 4.94 µM (inactive) in the assay with M19-MEL; 3.48 µM (inactive) in the assay on DLD-1; 4.05 µM (inactive) in the assay with CCRF-CEM. The values for the GI50 in the assay with SNB-78, with HOP-92 and in the assay on ACHN were 6.79 µM (inactive), 0.0478 µM (active) and 4.66 µM (inactive), respectively.
